Data published in ChEMBL document CHEMBL5724914, “Linking interpersonal differences in gut microbiota composition and drug biotransformation activity” (2024).

How the values were obtained:
[1] = The drug is tested on Z-027 corresponding to metagenome with ENA study accession number: PRJEB37062 and ENA sample accession number: ERS12561826 for biotransformation under anaerobic condition. The drug concentrations were measured over 9 timepoints collected between 0 and 24 hours of incubation by liquid-chromatography-coupled mass spectrometry (LC–MS); conditions: 2 µM
[2] = The drug is tested on Z-023 corresponding to metagenome with ENA study accession number: PRJEB37062 and ENA sample accession number: ERS12561822 for biotransformation under anaerobic condition. The drug concentrations were measured over 9 timepoints collected between 0 and 24 hours of incubation by liquid-chromatography-coupled mass spectrometry (LC–MS); conditions: 2 µM
[3] = The drug is tested on Z-020 corresponding to rabbit gut metagenome with ENA study accession number: PRJEB37062 and ENA sample accession number: ERS12561819 for biotransformation under anaerobic condition. The drug concentrations were measured over 9 timepoints collected between 0 and 24 hours of incubation by liquid-chromatography-coupled mass spectrometry (LC–MS); conditions: 2 µM
[4] = The drug is tested on Z-012 corresponding to metagenome with ENA study accession number: PRJEB37062 and ENA sample accession number: ERS12561812 for biotransformation under anaerobic condition. The drug concentrations were measured over 9 timepoints collected between 0 and 24 hours of incubation by liquid-chromatography-coupled mass spectrometry (LC–MS); conditions: 2 µM
[5] = The drug is tested on Z-011 corresponding to mouse gut metagenome with ENA study accession number: PRJEB37062 and ENA sample accession number: ERS12561811 for biotransformation under anaerobic condition. The drug concentrations were measured over 9 timepoints collected between 0 and 24 hours of incubation by liquid-chromatography-coupled mass spectrometry (LC–MS); conditions: 2 µM
[6] = The drug is tested on Z-001 corresponding to mouse gut metagenome with ENA study accession number: PRJEB37062 and ENA sample accession number: ERS12561801 for biotransformation under anaerobic condition. The drug concentrations were measured over 9 timepoints collected between 0 and 24 hours of incubation by liquid-chromatography-coupled mass spectrometry (LC–MS); conditions: 2 µM
[7] = The drug is tested on WLS-098 corresponding to human gut metagenome with ENA study accession number: PRJEB37062 and ENA sample accession number: ERS12561754 for biotransformation under anaerobic condition. The drug concentrations were measured over 9 timepoints collected between 0 and 24 hours of incubation by liquid-chromatography-coupled mass spectrometry (LC–MS); conditions: 2 µM
[8] = The drug is tested on WLS-090 corresponding to human gut metagenome with ENA study accession number: PRJEB37062 and ENA sample accession number: ERS12561753 for biotransformation under anaerobic condition. The drug concentrations were measured over 9 timepoints collected between 0 and 24 hours of incubation by liquid-chromatography-coupled mass spectrometry (LC–MS); conditions: 2 µM
[9] = The drug is tested on WLS-073 corresponding to human gut metagenome with ENA study accession number: PRJEB37062 and ENA sample accession number: ERS12561749 for biotransformation under anaerobic condition. The drug concentrations were measured over 9 timepoints collected between 0 and 24 hours of incubation by liquid-chromatography-coupled mass spectrometry (LC–MS); conditions: 2 µM
[10] = The drug is tested on WLS-052 corresponding to human gut metagenome with ENA study accession number: PRJEB37062 and ENA sample accession number: ERS12561747 for biotransformation under anaerobic condition. The drug concentrations were measured over 9 timepoints collected between 0 and 24 hours of incubation by liquid-chromatography-coupled mass spectrometry (LC–MS); conditions: 2 µM
[11] = The drug is tested on WLS-027 corresponding to human gut metagenome with ENA study accession number: PRJEB37062 and ENA sample accession number: ERS12561744 for biotransformation under anaerobic condition. The drug concentrations were measured over 9 timepoints collected between 0 and 24 hours of incubation by liquid-chromatography-coupled mass spectrometry (LC–MS); conditions: 2 µM
[12] = human gut metagenome, 24 h, 2 µM
[13] = human gut metagenome, 24 h, 2 µM; remark: listed apart in the source
[14] = human gut metagenome, 24 h, 2 µM; remark: listed apart in the source
[15] = human gut metagenome, 24 h, 2 µM; remark: listed apart in the source
[16] = human gut metagenome, 24 h, 2 µM; remark: listed apart in the source
[17] = human gut metagenome, 24 h, 2 µM; remark: listed apart in the source
[18] = human gut metagenome, 24 h, 2 µM; remark: listed apart in the source
[19] = human gut metagenome, 24 h, 2 µM; remark: listed apart in the source
[20] = The drug is tested on WLS-007 corresponding to human gut metagenome with ENA study accession number: PRJEB37062 and ENA sample accession number: ERS12561742 for biotransformation under anaerobic condition. The drug concentrations were measured over 9 timepoints collected between 0 and 24 hours of incubation by liquid-chromatography-coupled mass spectrometry (LC–MS); conditions: 2 µM
Further: call rule not given here.

| Bacterial Biotransformation [1] | Bacterial Biotransformation [2] | Bacterial Biotransformation [3] | Bacterial Biotransformation [4] | Bacterial Biotransformation [5] | Bacterial Biotransformation [6] | Bacterial Biotransformation [7] | Bacterial Biotransformation [8] | Bacterial Biotransformation [9] | Bacterial Biotransformation [10] | Bacterial Biotransformation [11] | Bacterial Biotransformation [12] | Bacterial Biotransformation [13] | Bacterial Biotransformation [14] | Bacterial Biotransformation [15] | Bacterial Biotransformation [16] | Bacterial Biotransformation [17] | Bacterial Biotransformation [18] | Bacterial Biotransformation [19] | Bacterial Biotransformation [20] | SMILES |
| --- | --- | --- | --- | --- | --- | --- | --- | --- | --- | --- | --- | --- | --- | --- | --- | --- | --- | --- | --- | --- |
| Compound metabolized | Compound metabolized | Compound metabolized | Compound metabolized | Compound metabolized | Compound NOT metabolized | Compound metabolized | Compound metabolized | Compound NOT metabolized | Compound NOT metabolized | Compound metabolized | Compound NOT metabolized | Compound NOT metabolized | Compound metabolized | Compound metabolized | Compound metabolized | Compound NOT metabolized | Compound metabolized | Compound NOT metabolized |  | CC(C)OC(=O)C(C)(C)Oc1ccc(C(=O)c2ccc(Cl)cc2)cc1 [FENOFIBRATE] |
|  | Compound metabolized | Compound NOT metabolized | Compound NOT metabolized | Compound NOT metabolized | Compound NOT metabolized | Compound NOT metabolized | Compound NOT metabolized | Compound NOT metabolized | Compound NOT metabolized | Compound NOT metabolized | Compound NOT metabolized | Compound NOT metabolized | Compound NOT metabolized | Compound NOT metabolized | Compound NOT metabolized | Compound NOT metabolized | Compound NOT metabolized | Compound NOT metabolized | Compound NOT metabolized | COc1ccccc1N1CCN(CC(O)COc2cccc3ccccc23)CC1 (configuration not stated) [NAFTOPIDIL] |
| Compound NOT metabolized | Compound NOT metabolized | Compound NOT metabolized | Compound NOT metabolized | Compound NOT metabolized | Compound NOT metabolized | Compound NOT metabolized | Compound NOT metabolized | Compound NOT metabolized | Compound NOT metabolized | Compound NOT metabolized | Compound NOT metabolized | Compound NOT metabolized | Compound NOT metabolized | Compound NOT metabolized | Compound NOT metabolized | Compound NOT metabolized |  |  | Compound NOT metabolized | CN(C)CCc1c[nH]c2ccc(Cn3cncn3)cc12.O=C(O)c1ccccc1 [RIZATRIPTAN BENZOATE] |

The next lines start with the molecule.

| SMILES | Bacterial Biotransformation [1] | Bacterial Biotransformation [2] | Bacterial Biotransformation [3] | Bacterial Biotransformation [4] | Bacterial Biotransformation [5] | Bacterial Biotransformation [6] | Bacterial Biotransformation [7] | Bacterial Biotransformation [8] | Bacterial Biotransformation [9] | Bacterial Biotransformation [10] | Bacterial Biotransformation [11] | Bacterial Biotransformation [12] | Bacterial Biotransformation [13] | Bacterial Biotransformation [14] | Bacterial Biotransformation [15] | Bacterial Biotransformation [16] | Bacterial Biotransformation [17] | Bacterial Biotransformation [18] | Bacterial Biotransformation [19] | Bacterial Biotransformation [20] |
| --- | --- | --- | --- | --- | --- | --- | --- | --- | --- | --- | --- | --- | --- | --- | --- | --- | --- | --- | --- | --- |
| CCN(CC)C(=O)/C(C#N)=C/c1cc(O)c(O)c([N+](=O)[O-])c1 [ENTACAPONE] | Compound metabolized | Compound metabolized | Compound metabolized | Compound metabolized | Compound metabolized | Compound metabolized |  |  |  |  |  |  |  |  |  |  |  |  |  |  |
| CC[C@H](C)C(=O)O[C@H]1C[C@@H](C)C=C2C=C[C@H](C)[C@H](CC[C@@H]3C[C@@H](O)CC(=O)O3)[C@H]21 [LOVASTATIN] | Compound NOT metabolized | Compound metabolized | Compound metabolized | Compound NOT metabolized | Compound metabolized | Compound NOT metabolized | Compound NOT metabolized | Compound NOT metabolized | Compound NOT metabolized | Compound NOT metabolized | Compound NOT metabolized | Compound NOT metabolized | Compound NOT metabolized |  | Compound NOT metabolized | Compound NOT metabolized | Compound NOT metabolized | Compound NOT metabolized | Compound NOT metabolized | Compound NOT metabolized |
| COc1c2occc2cc2ccc(=O)oc12 [METHOXSALEN] | Compound metabolized | Compound metabolized | Compound metabolized | Compound metabolized | Compound NOT metabolized | Compound NOT metabolized | Compound metabolized | Compound metabolized |  | Compound metabolized | Compound metabolized | Compound metabolized | Compound metabolized | Compound metabolized | Compound metabolized | Compound metabolized | Compound metabolized | Compound metabolized | Compound metabolized |  |
| Cc1nc2n(c(=O)c1CCN1CCC(c3noc4cc(F)ccc34)CC1)CCCC2 [RISPERIDONE] | Compound metabolized | Compound metabolized | Compound metabolized | Compound metabolized | Compound metabolized | Compound metabolized |  | Compound metabolized |  | Compound metabolized | Compound metabolized | Compound metabolized | Compound metabolized | Compound metabolized | Compound metabolized | Compound metabolized | Compound metabolized | Compound metabolized | Compound metabolized | Compound metabolized |
